Measured values reported in patent US5840999A, “Asymmetric benzoxanthene dyes” (The Perkin-Elmer Corporation, priority 1997, dated 1998).

Experiments:
Format in all cases: physicochemical
[1] = Stability in concentrated NH4OH at 60° C.; conditions: pure dye isomer 2, concentrated ammonia hydroxide, sealed vials, first order fit
Description: (§1) See FIGS. 1 and 2 for the structures of the dyes referred to in the table. All data are reported for pure dye isomer 2. All emission spectra were recorded in 1×TBE buffer at pH 8.4 in dye solutions having an absorbance of 0.05 at λmax Abs (ca. 1×10^-6 M) at room temperature. Photodecomposition rate was determined for equal volumes of the dyes at initially 1 absorption unit at λmax Abs and run in pairs at equal volumes under equal high intensity white light irradiation at 35° C. in 1×TBE buffer pH 8.4. […] (λmax Abs=0.05).

[2] = Relative brightness at λmax Em with 514 nm excitation; conditions: pure dye isomer 2, approximately equal concentrations (λmax Abs=0.05)
Description: as §1

[3] = Emission spectra of pure dyes (Table II); conditions: pure dye isomer 2, room temperature; for λmax Em: 1×TBE buffer pH 8.4, absorbance 0.05 at λmax Abs; for Width at Half Height: emission spectrum in 1×TBE buffer pH 8.4
[4] = Photodecomposition under high intensity white light; conditions: pure dye isomer 2, 35° C., 1×TBE buffer pH 8.4, from t1/2 for loss of dye
Description: as §1

TAMRA
Stability in NH4OH - t1/2 [1]: 1.3 h | Relative Brightness [2]: 0.9 | λmax Em [3]: 577 nm | Width at Half Height [3]: 39 nm

6-carboxy-4,7,2',4',5',7',-hexachlorofluorescein
Stability in NH4OH - t1/2 [1]: 11 h | Relative Brightness [2]: 2.4 | Relative Photostability [4]: 17 | λmax Em [3]: 550 nm | Width at Half Height [3]: 32 nm
